1 sequence from US12297240B2, “Peptide” (Kyoto University, priority 2015, dated 2025) can be followed below.

The test system of experiment [1] is ddY mice. The experiment in a line: Tail suspension test. The class given is in vivo. Here is the method:
(§1) The test was carried out (0 minutes) 30 minutes after administration of a test substance, and the immobility time during the period from 0 to 6 minutes was measured (FIG. 2).
When an antidepressant drug, such as imipramine, is administered, the immobility time is reduced. Thus, when a reduction in the immobility time is observed, it can be evaluated that the test substance has an antidepressant-like effect. Immobility is considered a despair state; therefore, a reduction in the immobility time also serves as an index for improvement of a despair state, i.e., enhancement of motivation.

In experiment [2] the test system is ddY mice. The experiment in a line: Forced swim test. The class given is in vivo. The note with it: 1 mg/kg or more orally; doses tested 0.3, 1 mg/kg (Example 5, FIG. 8). Here is the method: The test was carried out (0 minutes) 30 minutes after administration of a test substance, and the immobility time during the period from 0 to 8 minutes was measured (FIG. 2).
As in the tail suspension test, when an antidepressant drug, such as imipramine, is administered, the immobility time is reduced. Thus, when a reduction in the immobility time is observed, it can be evaluated that the test substance has an antidepressant-like effect. Immobility is considered a despair state; therefore, a reduction in the immobility time also serves as an index for improvement of a despair state, i.e., enhancement of motivation.

The subject of experiment [3] is ddY mice. The experiment is described as follows: Elevated plus-maze test (EPM). In kind it is in vivo. The source says: The elevated plus-maze includes two open arms (25×5 cm) and two closed arms (25×5×15 cm), which are joined to a central platform 50 cm high above the floor (see FIG. 3A). Because the closed arms are surrounded by walls, a mouse can safely walk in the closed arms in spite of the elevated position. On the other hand, because the open arms are not surrounded by walls, a mouse walking along the open arms feels anxious that it may fall from the elevated position. Thus, the more time the mouse spends in the open arms, or the greater the number of entries into the open arms, the less anxious the mouse feels. Thus, the anxiolytic activity is determined based on these indices.
Each mouse was placed on a portion of the central platform facing one of the open arms 30 minutes after the administration, and the test was started. During the 5-minute test time, the cumulative time spent in the open arms (time in open arms), the number of visits to the open arms (visit to open arms), and the total number of visits to any of the arms (total visits) were recorded. The percentage of time spent in the open arms and the percentage of the number of visits to the open arms were calculated as indices of anxiety.

For experiment [4], the system named is ddY mice. The experiment is described as follows: Open field test. The class given is in vivo. Here is the method:
Similar to the case of the elevated plus-maze test, the higher the percentage of exploratory behaviors of a mouse in the center portion of a circle, the less anxious the mouse feels. Thus, the anxiolytic activity is determined based on this index.
Each mouse was placed in an open field 30 minutes after the administration, and the test was started. The percentage of exploratory behaviors in the center portion of the circle (the time spent in the center circle (open field) (Time in 12 cm circle) and the percentage of the number of visits to the center circle (Visits in 12 cm circle)) during the 5-minute test time were evaluated.

In experiment [5] the test system is serotonin 5-HT1A, dopamine D1, and GABAA receptors. The experiment is described as follows: Tail suspension test in combination with receptor antagonists (mechanism of action). In kind it is in vivo, mice. Particulars: 0.3 mg/kg p.o. with WAY100135 10 mg/kg, SCH23390 30 μg/kg or bicuculline 30 mg/kg (Example 8, FIG. 11). Here is the method:
as §1
The tail suspension test was performed using mice to which 30 mg/kg of the thermolysin digest of β-CG was orally administered (p.o.) in combination with each of the antagonists of various receptors. Three kinds of antagonists, i.e., WAY100135, which is an antagonist of the serotonin 5-HT1A receptor (dose: 10 mg/kg), SCH23390, which is an antagonist of the dopamine D1 receptor (dose: 30 μg/kg), and bicuculline, which is an antagonist of the GABA-A receptor (dose: 30 mg/kg), were used.
The tail suspension test was performed using mice to which 0.3 mg/kg of the peptide LSSTQAQQSY (SEQ ID NO: 1) was orally administered (p.o.) in combination with each of the antagonists of various receptors. Three kinds of antagonists, i.e., WAY100135, which is an antagonist of the serotonin 5-HT1A receptor (dose: 10 mg/kg), SCH23390, which is an antagonist of the dopamine D1 receptor (dose: 30 μg/kg), and bicuculline, which is an antagonist of the GABA-A receptor (dose: 30 mg/kg), were used.

In the case of “LSSTQAQQSY (Designed peptide) [10-residue peptide from thermolysin digest of soybean β-conglycinin; synthesized by a standard method]”, the immobility time entry is recorded as “significantly reduced” in experiment [1] (0.3 mg/kg or more orally, doses tested 0.1, 0.3, 1, 3 mg/kg (Example 4, FIG. 7)); “strongest immobility time reducing effect” in experiment [1] (0.3 mg/kg orally, C-terminal variants (Example 12, FIG. 16)); “strongest immobility time reducing effect” in experiment [1] (0.3 mg/kg orally, structure-activity relationships (Example 6, FIG. 9)); “significantly reduced” in experiment [2]. Moreover, the “percentage of time spent in the open arms” value in experiment [3] (1 mg/kg orally, doses tested 0.1, 0.3, 1 mg/kg (Example 10, FIG. 14)) is “significantly increased”. Moreover, the “total number of entries (amount of activities)” value in experiment [3] (0.1, 0.3 or 1 mg/kg (Example 10, FIG. 14)) was “no significant difference”. Further, the “number of visits to the center circle (open field)” value in experiment [4] (1 mg/kg orally (Example 11, FIG. 15)) is “significantly increased”. Further, in experiment [4] (1 mg/kg orally, doses tested 0.1, 0.3, 1 mg/kg (Example 11, FIG. 15)), the “time spent in the center circle (open field)” value is on record as “significantly increased”. The amount of activities result in experiment [4] (0.1, 0.3 or 1 mg/kg (Example 11, FIG. 15)) is “no significant difference”. Moreover, the “reduction in the immobility time in combination with antagonists” value in experiment [5] was “significantly suppressed”.
